# Experimental data taken from ChEMBL document CHEMBL5325486, “Synthesis of novobiocin derivatives and evaluation of their antigonococcal activity and pharmacokinetics” (Bioorg Med Chem, 2023).
# Assays:
# Staphylococcus aureus = test: Antibacterial activity against Staphylococcus aureus assessed inhibition of bacterial growth; type: functional
# Neisseria gonorrhoeae [1] = test: Antibacterial activity against resistant Neisseria gonorrhoeae assessed inhibition of bacterial growth; type: functional
# Neisseria gonorrhoeae [2] = test: Antibacterial activity against Neisseria gonorrhoeae clinical isolate assessed inhibition of bacterial growth; type: functional
# [3] = Metabolic stability in mouse liver microsomes assessed as residual rate; type: ADME, Microsome
# [4] = Aqueous solubility of compound in neutral JP2 solution; type: physicochemical
# [5] = Effective permeability of compound by PAMPA assay; type: ADME; conditions: read-out: Peff
# [6] = Aqueous solubility of compound in acidic JP1 solution; type: physicochemical
# [7] = JP2 solution, read-out: solubility
# [8] = JP1 solution, read-out: solubility
Structure (SMILES),MIC50 (Staphylococcus aureus) [µg/mL],MIC90 (Staphylococcus aureus) [µg/mL],MIC50 (Neisseria gonorrhoeae [1]) [µg/mL],MIC90 (Neisseria gonorrhoeae [1]) [µg/mL],MIC90 (Neisseria gonorrhoeae [2]) [µg/mL],Stability [3] [%],solubility ([4]; buffer) [µM],Papp [5] [×10⁻⁶ cm/s],solubility ([6]; buffer) [µM],"solubility [4, 7] [µM]","solubility [6, 8] [µM]"
CO[C@@H]1[C@@H](OC(=O)c2ccc(C)[nH]2)[C@@H](O)[C@H](Oc2ccc3c(O)c(NC(=O)c4ccnc(N(C)C)c4)c(=O)oc3c2C)OC1(C)C,0.5,0.5,0.5,0.5,–,–,–,–,–,–,–
O=c1ccc2ncc(=O)n3c2n1C[C@H]3CN1CCC(NCc2cc3c(cn2)OCCC3)CC1 [GEPOTIDACIN],–,–,–,–,0.5,107,67,4.19,63.4,–,–
CO[C@@H]1[C@@H](OC(=O)c2ccc(C)[nH]2)[C@@H](O)[C@H](Oc2ccc3c(O)c(NC(=O)c4ccnc(C)c4)c(=O)oc3c2C)OC1(C)C,0.5,1,0.25,0.5,–,120,–,0.349,–,71.8,55
C=Cc1cc(C(=O)Nc2c(O)c3ccc(O[C@@H]4OC(C)(C)[C@H](OC)[C@@H](OC(=O)c5ccc(C)[nH]5)[C@H]4O)c(C)c3oc2=O)ccn1,0.5,1,0.5,0.5,–,–,–,–,–,–,–
CO[C@@H]1[C@@H](OC(=O)c2ccc(C)[nH]2)[C@@H](O)[C@H](Oc2ccc3c(O)c(NC(=O)c4c(C)ncn4CC=C(C)C)c(=O)oc3c2C)OC1(C)C,0.5,0.5,0.5,0.5,–,–,–,–,–,–,–
C[C@@H]1CN2c3c(cc4c(N5C(=O)OC[C@@H]5C)noc4c3F)CC3(C(=O)NC(=O)NC3=O)[C@H]2[C@H](C)O1 [ZOLIFLODACIN],–,–,–,–,0.063,94.3,–,0.039,–,66,66.3
CO[C@@H]1[C@@H](OC(=O)c2ccc(C)[nH]2)[C@@H](O)[C@H](Oc2ccc3c(O)c(NC(=O)c4cn(Cc5ccccn5)cn4)c(=O)oc3c2C)OC1(C)C,0.25,0.5,0.5,0.5,–,–,–,–,–,–,–
CO[C@@H]1[C@@H](OC(=O)c2ccc(C)[nH]2)[C@@H](O)[C@H](Oc2ccc3c(O)c(NC(=O)Cn4c(-c5ccccn5)nc5ccccc54)c(=O)oc3c2C)OC1(C)C,0.25,0.5,0.5,0.5,–,–,–,–,–,–,–
CCCn1cnc(C(=O)Nc2c(O)c3ccc(O[C@@H]4OC(C)(C)[C@H](OC)[C@@H](OC(=O)c5ccc(C)[nH]5)[C@H]4O)c(C)c3oc2=O)c1,0.5,0.5,1,1,–,–,–,–,–,–,–
CO[C@@H]1[C@@H](OC(=O)c2[nH]c(C)cc2C)[C@@H](O)[C@H](Oc2ccc3c(O)c(NC(=O)c4ccc(O)c(CC=C(C)C)c4)c(=O)oc3c2C)OC1(C)C,0.063,0.125,0.25,0.25,–,–,–,–,–,–,–
CO[C@@H]1[C@@H](OC(=O)c2ccc(C)[nH]2)[C@@H](O)[C@H](Oc2ccc3c(O)c(NC(=O)CN(C)C)c(=O)oc3c2C)OC1(C)C,1,2,2,4,–,–,–,–,–,> 100,> 100
CO[C@@H]1[C@H](NC(=O)c2ccc(C)[nH]2)[C@@H](O)[C@H](Oc2ccc3c(O)c(NC(=O)c4ccc(O)c(CC=C(C)C)c4)c(=O)oc3c2C)OC1(C)C,> 128,> 128,64,> 64,–,–,–,–,–,–,–
CO[C@@H]1[C@@H](OC(=O)c2ccc(C)[nH]2)[C@@H](O)[C@H](Oc2ccc3c(O)c(NC(=O)c4sc5nccn5c4C)c(=O)oc3c2C)OC1(C)C,0.5,1,0.5,0.5,–,–,–,–,–,–,–
CO[C@@H]1[C@@H](OC(=O)c2ccc(C)[nH]2)[C@@H](O)[C@H](Oc2ccc3c(O)c(NC(=O)c4ccncc4)c(=O)oc3c2C)OC1(C)C,4,8,1,1,–,–,–,–,–,–,–
CO/N=C(\C(=O)N[C@@H]1C(=O)N2C(C(=O)O)=C(CSc3nc(=O)c(O)nn3C)CS[C@H]12)c1csc(N)n1 [CEFTRIAXONE],1,> 128,0.008,0.25,–,–,–,–,–,–,–
CO[C@@H]1[C@@H](NC(=O)c2ccc(C)[nH]2)[C@@H](O)[C@H](Oc2ccc3c(O)c(NC(=O)c4ccc(O)c(CC=C(C)C)c4)c(=O)oc3c2C)OC1(C)C,2,2,32,64,–,–,–,–,–,–,–
CO[C@@H]1[C@@H](OC(=O)c2ccc(C)[nH]2)[C@@H](O)[C@H](Oc2ccc3c(O)c(NC(=O)c4ccnc(N)c4)c(=O)oc3c2C)OC1(C)C,2,2,0.5,1,–,–,–,–,–,–,–
C=CCONC(=O)O[C@H]1[C@@H](O)[C@H](Oc2ccc3c(O)c(NC(=O)c4ccc(O)c(CC=C(C)C)c4)c(=O)oc3c2C)OC(C)(C)[C@@H]1OC,0.125,0.25,1,2,–,–,–,–,–,–,–
